From the supplement of paper PMC3493320

The compounds below were run on NCI-H295R (assay: IC50 (antiproliferative, ATP content)). Details: 48 h.
How it was run: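 Adrenocortical carcinoma cells were plated at 1500 per well in 1536-well plates in serum-free DMEM with ITS supplement, left overnight, then given library compounds by pin transfer at 8 final concentrations spanning 0.6 nM to 46 µM and held 48 h at 37 °C, 5% CO2. ATP was measured as CellTiter-Glo luminescence after 20 min at room temperature and scaled between vehicle and positive-control wells. A four-parameter logistic model was fitted to each series. The IC50 was taken from these fits, and compounds without a concentration response were recorded as above the top dose.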
`COc1c(O)cc2c(c1O)[C@@H]1O[C@H](CO)[C@@H](O)[C@H](O)[C@H]1OC2=O.O` was tested, and the IC50 was over 46 µM.
`CC[C@H]1OC(=O)[C@H](C)[C@@H](O[C@H]2C[C@@](C)(OC)[C@@H](O)[C@H](C)O2)[C@H](C)[C@@H](O[C@@H]2O[C@H](C)C[C@H](N(C)C)[C@H]2O)[C@](C)(O)C[C@@H](C)CN(C)[C@H](C)[C@@H](O)[C@]1(C)O` gave an IC50 of over 46 µM.
With `Cc1ccccc1/N=N/c1ccc(/N=N/c2c(O)ccc3ccccc23)c(C)c1` the IC50 was over 46 µM.
With `COCCCC/C(=N\OCCN)c1ccc(C(F)(F)F)cc1` the IC50 was over 46 µM.
`CCCC(CCC)C(=O)O` gave an IC50 of over 46 µM.
Compound `NC(CO)(CO)CO` has an IC50 of over 46 µM.
`CCOC(=O)C=C(C)C=CC=C(C)C=Cc1c(C)cc(OC)c(C)c1C` was tested, and the IC50 was over 46 µM.
In the case of `CO[C@H]1/C=C/O[C@@]2(C)Oc3c(C)c(O)c4c(O)c(cc([O-])c4c3C2=O)NC(=O)/C(C)=C\C=C\[C@H](C)[C@H](O)[C@@H](C)[C@@H](O)[C@@H](C)[C@H](OC(C)=O)[C@@H]1C.[Na+]`, the IC50 is reported as over 46 µM.
Work on `CC(CCc1ccccc1)NCC(O)c1ccc(O)c(C(N)=O)c1.Cl` (centres undefined) yielded an IC50 of over 46 µM.
`CCN(CC)CCNC(=O)COc1ccc(OC)cc1.Cl` gave an IC50 of over 46 µM.
For `c13c(C(\C(=C/N1C2CC2)C(O)=O)=O)c(c(c(c3F)N4C[C@@H](N[C@@H](C4)C)C)F)N`, the IC50 was over 46 µM.
`Cl.Cn1ccc2cc3c(cc21)CCN3C(=O)Nc1cccnc1` gave an IC50 of over 46 µM.
`CC(=O)Oc1cccc(C(=O)O)c1OC(C)=O` showed an IC50 of over 46 µM.
Compound `OC(=O)[C@@H](N)C\C2=C\Nc1ccc(O)cc12` has an IC50 of over 46 µM.
In the case of `OC[C@H]1O[C@@](CO)(O[C@H]2O[C@H](CO)[C@@H](O)[C@H](O)[C@H]2O)[C@@H](O)[C@@H]1O`, the IC50 is reported as over 46 µM.
For `CCN(CC)CCN1C(=O)CN=C(c2ccccc2F)c2cc(Cl)ccc21`, the IC50 was over 46 µM.
Compound `CC(=O)c1ccc(S(=O)(=O)NC(=O)NC2CCCCC2)cc1` has an IC50 of over 46 µM.
In the case of `CN(C)CCOC(c1ccc(Cl)cc1)c1ccccn1.O=C(O)/C=C\C(=O)O` (centres undefined), the IC50 is reported as over 46 µM.
With `CCCCCCCCCCCCCCCCO` the IC50 was over 46 µM.
`C[C@H](CCC(=O)O)[C@H]1CC[C@H]2[C@@H]3[C@H](O)C[C@@H]4C[C@H](O)CC[C@]4(C)[C@H]3CC[C@]12C` showed an IC50 of over 46 µM.
`NNc1nnc(NN)c2ccccc12` showed an IC50 of over 46 µM.
`Nc1ccc(C(=O)[O-])c(O)c1.[Na+]` showed an IC50 of over 46 µM.
For `CN(C)CC/C=C1\c2ccccc2COc2ccccc21.Cl`, the IC50 was over 46 µM.
`CC(=O)O.CNC(=N)NCCC[C@H](N)C(=O)O` was tested, and the IC50 was over 46 µM.
In the case of `CCN(CC)CCOc1ccccc1C(=O)CCc1ccccc1`, the IC50 is reported as over 46 µM.
In the case of `O=C1Nc2ccc(Cl)cc2C(c2ccccc2Cl)=NC1O` (centres undefined), the IC50 is reported as over 46 µM.
`CN1CCN(CCCN2c3ccccc3Sc3ccc(C(F)(F)F)cc32)CC1.Cl.Cl` was tested, and the IC50 was over 46 µM.
For `CC(C)NCC(O)c1ccc(N)c(C#N)c1` (centres undefined), the IC50 was over 46 µM.
`CCN(CC)C(=S)[S-].[Na+]` showed an IC50 of over 46 µM.
`CCN(CC)Cc1cc(Nc2ccnc3cc(Cl)ccc23)ccc1O.Cl.Cl.O.O` was tested, and the IC50 was over 46 µM.
`CCCCCCCCCCCCCCCCCCCCCC(=O)Nc1ccn([C@@H]2O[C@H](CO)[C@@H](O)[C@@H]2O)c(=O)n1` gave an IC50 of over 46 µM.
`C[C@H](O)[C@H](O)[C@H]1CNc2[nH]c(N)nc(=O)c2N1.Cl.Cl` gave an IC50 of over 46 µM.
Work on `Cl.NCCc1cc(O)c(O)cc1O` yielded an IC50 of over 46 µM.
With `CC(C)(C)C(=O)OCOC(=O)[C@@H]1N2C(=O)[C@@H](NC(=O)[C@H](N)c3ccccc3)[C@H]2SC1(C)C` the IC50 was over 46 µM.
Work on `CCN(CC)CCOC(=O)C(Cc1cccc2ccccc12)CC1CCCO1.O=C(O)C(=O)O` (centres undefined) yielded an IC50 of over 46 µM.
Work on `CN1C(C(=O)Nc2ccccn2)C(=O)c2sc(Cl)cc2S1(=O)=O` (centres undefined) yielded an IC50 of over 46 µM.
For `CC1CCCCN1CCCOC(=O)c1ccccc1.Cl` (centres undefined), the IC50 was over 46 µM.
`CC(=O)Nc1ccc(O)cc1` was tested, and the IC50 was over 46 µM.
`[O]=[Bi][O][Bi]=[O]` gave an IC50 of over 46 µM.
For `CC(=O)OCC(=O)[C@@]1(O)CC[C@H]2[C@@H]3CCC4=CC(=O)CC[C@]4(C)C3=CC[C@@]21C`, the IC50 was over 46 µM.
`CC(/C=C/C=C(\C)C(=O)O[C@@H]1O[C@H](CO[C@@H]2O[C@H](CO)[C@@H](O)[C@H](O)[C@H]2O)[C@@H](O)[C@H](O)[C@H]1O)=C\C=C\C=C(C)\C=C\C=C(/C)C(=O)O[C@@H]1O[C@H](CO[C@@H]2O[C@H](CO)[C@@H](O)[C@H](O)[C@H]2O)[C@@H](O)[C@H](O)[C@H]1O` was tested, and the IC50 was over 46 µM.
With `CC(NNC(=O)c1ccccc1)c1ccccc1` (centres undefined) the IC50 was over 46 µM.
`CC(=O)NCCCS(=O)(=O)[O-].CC(=O)NCCCS(=O)(=O)[O-].[Ca+2]` showed an IC50 of over 46 µM.
`CN1CCC(=C2c3ccccc3CC(=O)c3sccc32)CC1` showed an IC50 of over 46 µM.
Compound `CN1CC(=O)N=C1NC(=O)Nc1cccc(Cl)c1` has an IC50 of over 46 µM.
`Cl.O=C(Nc1ccccc1)OCC(CN1CCCCC1)OC(=O)Nc1ccccc1` (centres undefined) showed an IC50 of over 46 µM.
`Cn1c(=O)c2c(ncn2CCOC(=O)C(C)(C)Oc2ccc(Cl)cc2)n(C)c1=O` was tested, and the IC50 was over 46 µM.
With `O=C(c1ccc(F)cc1)C1CCN(CCn2c(=O)[nH]c3ccccc3c2=O)CC1` the IC50 was over 46 µM.
With `C#CCOc1ccc2c(C)cc(=O)oc2c1` the IC50 was over 46 µM.
In the case of `Cc1cc(OI)c(C(C)C)cc1-c1cc(C(C)C)c(OI)cc1C`, the IC50 is reported as over 46 µM.
`OCc1ccc(Cl)cc1Cl` showed an IC50 of over 46 µM.
Work on `O=C(O)c1cccc(-c2noc(-c3ccccc3F)n2)c1` yielded an IC50 of over 46 µM.
In the case of `COC(c1ccccc1)(c1ccccc1)[C@H](Oc1nc(C)cc(C)n1)C(=O)O`, the IC50 is reported as over 46 µM.
In the case of `CC(C)(C)NC[C@H](O)COc1ccccc1C1CCCC1.CC(C)(C)NC[C@H](O)COc1ccccc1C1CCCC1.O=S(=O)(O)O`, the IC50 is reported as over 46 µM.
For `CC(=O)OCC(=O)[C@H]2CC[C@H]3[C@@H]4CC\C1=C\C(=O)CC[C@]1(C)[C@H]4CC[C@]23C`, the IC50 was over 46 µM.
Work on `Cc1ncc(CO)c(CN)c1O.Cl.Cl` yielded an IC50 of over 46 µM.
With `O=P(O)(O)O` the IC50 was over 46 µM.
`CC(C)CCC[C@@H](C)[C@H]1CC[C@H]2[C@@H]3CC[C@@H]4C[C@H](O)CC[C@]4(C)[C@H]3CC[C@]12C` showed an IC50 of over 46 µM.
With `Cc1c(Cn2ccnc2)c2ccccc2n1CCC(=O)O` the IC50 was over 46 µM.
For `Cc1cccc(C)c1OCC(C)N.Cl` (centres undefined), the IC50 was over 46 µM.
For `CC(C)NC[C@@H](O)COc1ccc(CC(N)=O)cc1`, the IC50 was over 46 µM.
Compound `CCCOC(C(=O)OC1CCN(C)CC1)(c1ccccc1)c1ccccc1.Cl` has an IC50 of over 46 µM.
Compound `C[N+]1([O-])[C@@H]2CC[C@H]1C[C@@H](OC(=O)C(CO)c1ccccc1)C2.Cl` (some centres undefined) has an IC50 of over 46 µM.
`Nc1nc2c(ncn2COCCO)c(=O)[nH]1` showed an IC50 of over 46 µM.
Work on `CCN(CC)CC1CCCCN1CC(=O)N1c2ccccc2C(=O)Nc2cccnc21` (centres undefined) yielded an IC50 of over 46 µM.
`CCCCCCCCCCCC(=O)OC[C@@H](O)[C@H]1OC[C@H](O)[C@H]1O` was tested, and the IC50 was over 46 µM.
In the case of `CC(C)O`, the IC50 is reported as over 46 µM.
`O=C(NNCS(=O)(=O)[O-])c1ccncc1.[Na+]` showed an IC50 of over 46 µM.
For `O=C(O)[C@H]1CN(C/C=C/P(=O)(O)O)CCN1`, the IC50 was over 46 µM.
For `CC(C)CC(N(C)C)C1(c2ccc(Cl)cc2)CCC1.Cl` (centres undefined), the IC50 was over 46 µM.
With `Cc1c(C(N)=O)cc([N+](=O)[O-])cc1[N+](=O)[O-]` the IC50 was over 46 µM.
Compound `O=C(N[C@H](CO)[C@H](O)c1ccc([N+](=O)[O-])cc1)C(Cl)Cl` has an IC50 of over 46 µM.
With `Cc1cccc(C)c1NC(=O)CN1CCCCCC1` the IC50 was over 46 µM.
`[Cl][In]([Cl])[Cl]` showed an IC50 of over 46 µM.
For `Cc1cc(CC(=O)O)c(C)n1-c1ccc(Cl)cc1`, the IC50 was over 46 µM.
Compound `CCCc1nc(C(C)(C)O)c(C(=O)OCc2oc(=O)oc2C)n1Cc1ccc(-c2ccccc2-c2nnn[nH]2)cc1` has an IC50 of over 46 µM.
`CC(C)C[C@H](CN)CC(=O)O` showed an IC50 of over 46 µM.
For `N#CC2=CC=C1[C@@](OCC1=C2)([C@]3=CC=C(C=C3)F)CCCN(C)C.OC(C(O)=O)=O`, the IC50 was over 46 µM.
Work on `ClC3=C(C=CC5=C3)OC1=CC([C@@](C(N[C@@](C8=CC%11=C(O)C=C8)([H])C(N[C@H]([C@](N[C@@H]([C@@](O)=O)C%12=C%11C(O[C@H]%13O[C@H](CO)[C@@H](O)[C@H](O)[C@@H]%13O)=CC(O)=C%12)=O)[C@@H]5O[C@@]6([H])[C@H](NC(C)=O)[C@@H](O)[C@H](O)[C@@H](CO)O6)=O)=O)([H])NC([C@@](C9=CC(O)=CC(OC%10=C(O)C=CC([C@@H]%14N)=C%10)=C9)([H])NC([C@H](NC%14=O)C7)=O)=O)=CC(OC4=CC=C7C=C4Cl)=C1O[C@H]2[C@H](NC(CC\C=C/CCCCC)=O)[C@@H](O)[C@H](O)[C@@H](CO)O2` yielded an IC50 of over 46 µM.
`CCCCOc1cc(C(=O)NCCN(CC)CC)c2ccccc2n1` was tested, and the IC50 was over 46 µM.
`CCn1cc(C(=O)O)c(=O)c2cc(F)c(N3CCN(C)CC3)cc21.CS(=O)(=O)O` gave an IC50 of over 46 µM.
`CCN(CC)CCNC(=O)c1ccc(NC(C)=O)cc1.Cl` was tested, and the IC50 was over 46 µM.
For `O=C3N1/C(=C(/C)CS[C@@H]1[C@@H]3NC(=O)[C@H](N)c2ccc(O)cc2)C(O)=O`, the IC50 was over 46 µM.
Compound `Cl.OC(CCN1CCCC1)(c1ccccc1)C1CCCCC1` (centres undefined) has an IC50 of over 46 µM.
Compound `Clc1cccc(SC2CCNCC2)n1` has an IC50 of over 46 µM.
Work on `CC(C)NNC(=O)c1ccncc1.O=S(=O)(O)O` yielded an IC50 of over 46 µM.
`O=S(=O)(O)c1cc(I)c(O)c2ncccc12` was tested, and the IC50 was over 46 µM.
With `CO[C@H]1C[C@H](O[C@H]2[C@H](C)[C@@H](O[C@@H]3O[C@H](C)C[C@H](N(C)C)[C@H]3O)[C@@H](C)C[C@]3(CO3)C(=O)[C@H](C)[C@@H](O)[C@@H](C)[C@@H](C)OC(=O)[C@@H]2C)O[C@@H](C)[C@@H]1O.O=P(O)(O)O` the IC50 was over 46 µM.
`CC(C)Cc1ccc(CC(=O)O)cc1` gave an IC50 of over 46 µM.
`CCOC(=O)NC(O)C(Cl)(Cl)Cl` (centres undefined) was tested, and the IC50 was over 46 µM.
`Cc1ccsc1/C=C/C1=NCCCN1C.O=C(O)[C@@H](O)[C@H](O)C(=O)O` gave an IC50 of over 46 µM.
`CC(=O)CCC(=O)[O-].CC(=O)CCC(=O)[O-].O.O.[Ca+2]` was tested, and the IC50 was over 46 µM.
Compound `O=C(O)Cc1ccc(CCNS(=O)(=O)c2ccc(Cl)cc2)cc1` has an IC50 of over 46 µM.
`Cc1c(C)c2c(c(C)c1O)CC[C@@](C)(CCC[C@H](C)CCC[C@H](C)CCCC(C)C)O2` was tested, and the IC50 was over 46 µM.
